# Target: T1, Human Factor D (Homo sapiens, UniProt P00746)
# T1 construct: purified from human serum; purchased Complement Technology, Inc; host or cells: human serum (natural protein, not recombinant)
# Assay: Human Factor D Assay
# Format: biochemical
# Details: Human Factor D 80 nM, substrate Z-L-Lys-SBzl, assay of Example 3; read-out: IC50 (Stars)
# Experimental: Human Factor D (purified from human serum, Complement Technology, Inc.) at 80 nM final concentration is incubated with test compound at various concentrations for 5 min at room temperature in 50 mM Tris, 1M NaCl, pH 7.5. A synthetic substrate Z-L-Lys-SBzl and DTNB (Ellman's reagent) are added to final concentrations of 100 μM each. […] IC50 values are calculated by nonlinear regression of complement Factor D reaction rates as a function of test compound concentration.
# T1 sequence (P00746 26-253): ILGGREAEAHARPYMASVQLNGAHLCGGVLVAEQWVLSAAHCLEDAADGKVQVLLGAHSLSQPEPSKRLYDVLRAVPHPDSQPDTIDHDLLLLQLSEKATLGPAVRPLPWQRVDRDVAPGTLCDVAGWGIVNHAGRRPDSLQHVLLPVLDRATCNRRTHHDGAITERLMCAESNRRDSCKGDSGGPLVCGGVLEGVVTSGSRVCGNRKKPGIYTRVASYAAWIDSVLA
row,SMILES,IC50 [nM]
1,"CC(=O)c1nn(CC(=O)N2[C@H](C(=O)Nc3nc(Br)ccc3C)C[C@@]3(CO)C[C@@H]23)c2ccc(-c3cnc(CO)nc3)cc12 [Compound 32, (1R,3S,5S)-2-(2-(3-Acetyl-5-(2-(hydroxymethyl)pyrimidin-5-yl)-1H-indazol-1-yl)acetyl)-N-(6-bromo-3-methylpyridin-2-yl)-5-(hydroxymethyl)-2-azabicyclo[3.1.0]hexane-3-carboxamide]",< 1000
2,"CC(=O)c1nn(CC(=O)N2C[C@H](F)C[C@H]2C(=O)Oc2cccc(Br)n2)c2ccc(-c3cnc(C)nc3)cc12 [Compound 37, (2S,4R)-6-Bromopyridin-2-yl 1-(2-(3-acetyl-5-(2-methylpyrimidin-5-yl)-1H-indazol-1-yl)acetyl)-4-fluoropyrrolidine-2-carboxylate]",1000 to 10000
3,"CC[C@@H](C)NC(=O)[C@@H]1C[C@@]2(C)C[C@H]2N1C(=O)Cn1nc(C(C)=O)c2cc(-c3cnc(C)nc3)ccc21 [Compound 11, (1R,3S,5R)-2-(2-(3-Acetyl-5-(2-methylpyrimidin-5-yl)-1H-indazol-1-yl)acetyl)-N—((R)-sec-butyl)-5-methyl-2-azabicyclo[3.1.0]hexane-3-carboxamide]",< 1000
4,"CC(=O)c1nn(CC(=O)N2[C@H](C(=O)Nc3nc(Br)ccc3C)C[C@@]3(C)C[C@@H]23)c2c(C)cc(-c3cnc(C)nc3O)cc12 [Compound 28, (1R,3S,5R)-2-(2-(3-acetyl-5-(4-hydroxy-2-methylpyrimidin-5-yl)-7-methyl-1H-indazol-1-yl)acetyl)-N-(6-bromo-3-methylpyridin-2-yl)-5-methyl-2-azabicyclo[3.1.0]hexane-3-carboxamide]",< 1000

# Same assay, conditions: Human Factor D 80 nM, substrate Z-L-Lys-SBzl; Table 2; read-out: IC50 (Stars)
row,SMILES,IC50 [nM]
1,"CC(=O)c1cn(CC(=O)N2[C@H](C(=O)Nc3nc(Br)ccc3C)C[C@@]3(C)C[C@@H]23)c2c(C)c(F)c(-c3cnc(C)nc3)cc12 [Compound 240, (1R,3S,5R)-2-(2-(3-acetyl-6-fluoro-7-methyl-5-(2-methylpyrimidin-5-yl)-1H-indol-1-yl)acetyl)-N-(6-bromo-3-methylpyridin-2-yl)-5-methyl-2-azabicyclo[3.1.0]hexane-3-carboxamide]",< 1000
2,"CC(=O)c1nn(CC(=O)N2[C@H](C(=O)Nc3nc(Br)ccc3C)C[C@@]3(C)C[C@@H]23)c2cc(CF)c(Nc3cnc(C)nc3)cc12 [Compound 185, (1R,3S,5R)-2-(2-(3-acetyl-6-(fluoromethyl)-5-((2-methylpyrimidin-5-yl)amino)-1H-indazol-1-yl)acetyl)-N-(6-bromo-3-methylpyridin-2-yl)-5-methyl-2-azabicyclo[3.1.0]hexane-3-carboxamide]",< 1000
3,"CC(=O)c1nn(CC(=O)N2[C@H]3CC[C@H](C3)[C@H]2C(=O)Nc2nc(C(F)(F)F)ccc2C)c2ccc(-c3cnc4cc(C)nn4c3)cc12 [Compound 213, (1S,3S,4R)-2-(2-(3-acetyl-5-(2-methylpyrazolo[1,5-a]pyrimidin-6-yl)-1H-indazol-1-yl)acetyl)-N-(3-methyl-6-(trifluoromethyl)pyridin-2-yl)-2-azabicyclo[2.2.1]heptane-3-carboxamide]",< 1000
4,"COCC(Cc1ccccc1)NC(=O)[C@@H]1C[C@@]2(C)C[C@H]2N1C(=O)Cn1nc(C(C)=O)c2cc(-c3cnc(C)nc3)cc(C)c21 (stereo partly drawn) [Compound 172, (1R,3S,5R)-2-{2-[3-acetyl-7-methyl-5-(2-methylpyrimidin-5-yl)indazol-1-yl]acetyl}-N-(1-methoxy-3-phenylpropan-2-yl)-5-methyl-2-azabicyclo[3.1.0]hexane-3-carboxamide]",< 1000
5,"CC(=O)c1nn(CC(=O)N2[C@H](C(=O)Nc3nc(Br)ccc3C)C[C@@]3(C)C[C@@H]23)c2c(C)cc(-c3cnc([C@H](C)O)nc3)cc12 (single isomer, unassigned) [Compound 141]",< 1000
6,"COCc1ccc(Br)nc1NC(=O)[C@@H]1C[C@@]2(C)C[C@H]2N1C(=O)Cn1cc(C(C)=O)c2cc(-c3cnc4cc(C)nn4c3)cc(C)c21 [Compound 215, (1R,3S,5R)-2-(2-(3-acetyl-7-methyl-5-(2-methylpyrazolo[1,5-a]pyrimidin-6-yl)-1H-indol-1-yl)acetyl)-N-(6-bromo-3-(methoxymethyl)pyridin-2-yl)-5-methyl-2-azabicyclo[3.1.0]hexane-3-carboxamide]",< 1000
7,"CC(=O)c1nn(CC(=O)N2[C@H](C(=O)NC3CCCC4(C3)OCCO4)C[C@@]3(C)C[C@@H]23)c2c(C)cc(-c3cnc(C)nc3)cc12 (stereo partly drawn) [Compound 137, (1R,3S,5R)-2-{2-[3-acetyl-7-methyl-5-(2-methylpyrimidin-5-yl)indazol-1-yl]acetyl}-N-{1,4-dioxaspiro[4.5]decan-7-yl}-5-methyl-2-azabicyclo[3.1.0]hexane-3-carboxamide]",< 1000
8,"CC(=O)c1nn(CC(=O)N2[C@H](C(=O)Nc3nc(Br)c(F)cc3C)C[C@@]3(C)C[C@@H]23)c2c(C)cc(-c3cnc(C(=O)O)nc3)cc12 [Compound 45, 5-(3-acetyl-1-(2-((1R,3S,5R)-3-((6-bromo-5-fluoro-3-methylpyridin-2-yl)carbamoyl)-5-methyl-2-azabicyclo[3.1.0]hexan-2-yl)-2-oxoethyl)-7-methyl-1H-indazol-5-yl)pyrimidine-2-carboxylic acid]",< 1000
9,"CC(=O)c1cn(CC(=O)N2[C@H]3CC[C@H](C3)[C@H]2C(=O)Nc2nc(Br)ccc2C)c2c(C)cc(-c3cnc(C)nc3)cc12 [Compound 178, (1S,3S,4R)-2-(2-(3-acetyl-7-methyl-5-(2-methylpyrimidin-5-yl)-1H-indol-1-yl)acetyl)-N-(6-bromo-3-methylpyridin-2-yl)-2-azabicyclo[2.2.1]heptane-3-carboxamide]",< 1000
10,"CC(=O)c1nn(CC(=O)N2[C@H](C(=O)N[C@@H](C)C3CCCCC3)C[C@@]3(C)C[C@@H]23)c2c(C)cc(-c3cnc(C)nc3)cc12 [Compound 72, (1R,3S,5R)-2-(2-(3-Acetyl-7-methyl-5-(2-methylpyrimidin-5-yl)-1H-indazol-1-yl)acetyl)-N—((S)-1-cyclohexylethyl)-5-methyl-2-azabicyclo[3.1.0]hexane-3-carboxamide]",< 1000
11,"CC(=O)c1nn(CC(=O)N2C[C@H]3C[C@H]3[C@H]2C(=O)Nc2nc(Br)ccc2Cl)c2c(C)cc(-c3cnc(CO)nc3)cc12 [Compound 75, (1R,2S,5S)-3-(2-(3-acetyl-5-(2-(hydroxymethyl)pyrimidin-5-yl)-7-methyl-11H-indazol-1-yl)acetyl)-N-(6-bromo-3-chloropyridin-2-yl)-3-azabicyclo[3.1.0]hexane-2-carboxamide]",< 1000
12,"CC(=O)c1nn(CC(=O)N2[C@H](C(=O)Nc3nc(C(F)(F)F)ccc3C)C[C@@]3(C)C[C@@H]23)c2c(C)cc(-c3cnc(CO)nc3)cc12 [Compound 54, (1R,3S,5R)-2-(2-(3-acetyl-5-(2-(hydroxymethyl)pyrimidin-5-yl)-7-methyl-1H-indazol-1-yl)acetyl)-5-methyl-N-(3-methyl-6-(trifluoromethyl)pyridin-2-yl)-2-azabicyclo[3.1.0]hexane-3-carboxamide]",< 1000
13,"COCCOC[C@@]12C[C@@H](C(=O)Nc3nc(Br)ccc3C)N(C(=O)Cn3nc(C(C)=O)c4cc(-c5cnc(CO)nc5)cc(C)c43)[C@@H]1C2 [Compound 108, (1R,3S,5S)-2-(2-(3-acetyl-5-(2-(hydroxymethyl)pyrimidin-5-yl)-7-methyl-1H-indazol-1-yl)acetyl)-N-(6-bromo-3-methylpyridin-2-yl)-5-((2-methoxyethoxy)methyl)-2-azabicyclo[3.1.0]hexane-3-carboxamide]",1000 to 10000
14,"CC(=O)c1nn(CC(=O)N2[C@H](C(=O)N[C@H](C)C(F)(F)F)C[C@@]3(C)C[C@@H]23)c2c(C)cc(-c3cnc(C)nc3)cc12 [Compound 152, (1R,3S,5R)-2-{2-[3-acetyl-7-methyl-5-(2-methylpyrimidin-5-yl)indazol-1-yl]acetyl}-5-methyl-N-[(2R)-1,1,1-trifluoropropan-2-yl]-2-azabicyclo[3.1.0]hexane-3-carboxamide]",< 1000
15,"CC(=O)c1nn(CC(=O)N2[C@H](C(=O)NC(C)Cc3ccco3)C[C@@]3(C)C[C@@H]23)c2c(C)cc(-c3cnc(C)nc3)cc12 (stereo partly drawn) [Compound 180, (1R,3S,5R)-2-{2-[3-acetyl-7-methyl-5-(2-methylpyrimidin-5-yl)indazol-1-yl]acetyl}-N-[1-(furan-2-yl)propan-2-yl]-5-methyl-2-azabicyclo[3.1.0]hexane-3-carboxamide]",< 1000
16,"CC(=O)c1cn(CC(=O)N2[C@H](C(=O)Nc3cc(F)cc(Br)n3)C[C@@]3(C)C[C@@H]23)c2c(C)cc(-c3cnc(C)nc3)cc12 [Compound 192, (1R,3S,5R)-2-(2-(3-acetyl-7-methyl-5-(2-methylpyrimidin-5-yl)-1H-indol-1-yl)acetyl)-N-(6-bromo-4-fluoropyridin-2-yl)-5-methyl-2-azabicyclo[3.1.0]hexane-3-carboxamide]",< 1000
17,"COC(C)(C)CNC(=O)[C@@H]1C[C@@]2(C)C[C@H]2N1C(=O)Cn1nc(C(C)=O)c2cc(-c3cnc(C)nc3)cc(C)c21 [Compound 87, (1R,3S,5R)-2-{2-[3-acetyl-7-methyl-5-(2-methylpyrimidin-5-yl)indazol-1-yl]acetyl}-N-(2-methoxy-2-methylpropyl)-5-methyl-2-azabicyclo[3.1.0]hexane-3-carboxamide]",< 1000
18,"Cc1cc(F)c(Br)nc1NC(=O)[C@@H]1[C@@H]2C[C@@H]2CN1C(=O)Cn1nc(C(N)=O)c2cc(-c3cnc(CO)nc3)nc(C)c21 [Compound 168, 1-(2-((1R,2S,5S)-2-((6-bromo-5-fluoro-3-methylpyridin-2-yl)carbamoyl)-3-azabicyclo[3.1.0]hexan-3-yl)-2-oxoethyl)-5-(2-(hydroxymethyl)pyrimidin-5-yl)-7-methyl-1H-pyrazolo[3,4-c]pyridine-3-carboxamide]",< 1000

# From patent US20230022157A1 (Achillion Pharmaceuticals, Inc., priority 2018, published 2023)
